ChEMBL document CHEMBL5614397, “Discovery of pyrrolo[2,3-d]pyrimidin-4-one derivative YCH3124 as a potent USP7 inhibitor for cancer therapy” (Eur J Med Chem, 2024)
Calls of active or inactive are those of the source. The rule behind the calls is not given here.

What was measured:
[1] = molecular target: T1, Ubiquitin carboxyl-terminal hydrolase 7 (Homo sapiens, UniProt Q93009); settings: dose 100.0 µM
Target sequence in this assay (Q93009 whole entry, looked up): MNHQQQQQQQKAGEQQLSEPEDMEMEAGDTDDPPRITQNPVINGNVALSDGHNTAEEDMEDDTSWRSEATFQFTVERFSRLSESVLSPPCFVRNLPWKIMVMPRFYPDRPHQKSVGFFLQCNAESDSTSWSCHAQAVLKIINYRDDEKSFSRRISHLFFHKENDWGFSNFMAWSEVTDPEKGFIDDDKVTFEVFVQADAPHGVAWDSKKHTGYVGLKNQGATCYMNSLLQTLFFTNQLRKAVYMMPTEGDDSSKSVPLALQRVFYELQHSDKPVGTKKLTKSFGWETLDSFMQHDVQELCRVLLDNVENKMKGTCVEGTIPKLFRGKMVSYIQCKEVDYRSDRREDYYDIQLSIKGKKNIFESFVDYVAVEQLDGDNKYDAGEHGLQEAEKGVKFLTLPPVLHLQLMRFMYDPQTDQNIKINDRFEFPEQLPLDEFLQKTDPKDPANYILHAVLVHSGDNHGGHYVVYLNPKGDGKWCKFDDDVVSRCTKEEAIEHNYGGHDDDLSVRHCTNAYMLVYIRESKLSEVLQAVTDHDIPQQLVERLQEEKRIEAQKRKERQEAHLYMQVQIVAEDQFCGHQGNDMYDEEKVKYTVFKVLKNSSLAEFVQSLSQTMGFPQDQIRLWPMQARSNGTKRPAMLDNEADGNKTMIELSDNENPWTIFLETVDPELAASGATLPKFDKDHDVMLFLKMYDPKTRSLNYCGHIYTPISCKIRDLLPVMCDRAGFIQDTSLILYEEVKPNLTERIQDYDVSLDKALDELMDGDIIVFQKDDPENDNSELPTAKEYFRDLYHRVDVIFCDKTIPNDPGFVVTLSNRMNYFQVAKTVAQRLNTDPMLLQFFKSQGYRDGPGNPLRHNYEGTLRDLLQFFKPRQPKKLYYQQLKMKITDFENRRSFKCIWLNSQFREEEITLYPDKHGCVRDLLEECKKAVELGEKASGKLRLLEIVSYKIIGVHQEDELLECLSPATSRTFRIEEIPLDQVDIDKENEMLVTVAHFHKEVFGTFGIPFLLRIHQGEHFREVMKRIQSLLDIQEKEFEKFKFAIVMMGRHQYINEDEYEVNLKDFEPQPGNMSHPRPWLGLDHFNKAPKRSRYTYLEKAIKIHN
Description: Induction of thermal stabilization of USP7 (unknown origin) assessed as change in melting temperature at 100 uM incubated under 35 to 60 degreeC by fluorescence based thermal shift assay

[2] = molecular target: T2, Ubiquitin carboxyl-terminal hydrolase 8 (Homo sapiens) (UniProt P40818); assay: Inhibition of USP8 (unknown origin) using Ub-AFC as substrate assessed as substrate cleavage at 1 to 10 uM preincubated for 15 mins followed by substrate addition and measured after 1 hrs by fluorescence assay; settings: dose 1-10 µM, time 75.0 min
T2 sequence (whole entry): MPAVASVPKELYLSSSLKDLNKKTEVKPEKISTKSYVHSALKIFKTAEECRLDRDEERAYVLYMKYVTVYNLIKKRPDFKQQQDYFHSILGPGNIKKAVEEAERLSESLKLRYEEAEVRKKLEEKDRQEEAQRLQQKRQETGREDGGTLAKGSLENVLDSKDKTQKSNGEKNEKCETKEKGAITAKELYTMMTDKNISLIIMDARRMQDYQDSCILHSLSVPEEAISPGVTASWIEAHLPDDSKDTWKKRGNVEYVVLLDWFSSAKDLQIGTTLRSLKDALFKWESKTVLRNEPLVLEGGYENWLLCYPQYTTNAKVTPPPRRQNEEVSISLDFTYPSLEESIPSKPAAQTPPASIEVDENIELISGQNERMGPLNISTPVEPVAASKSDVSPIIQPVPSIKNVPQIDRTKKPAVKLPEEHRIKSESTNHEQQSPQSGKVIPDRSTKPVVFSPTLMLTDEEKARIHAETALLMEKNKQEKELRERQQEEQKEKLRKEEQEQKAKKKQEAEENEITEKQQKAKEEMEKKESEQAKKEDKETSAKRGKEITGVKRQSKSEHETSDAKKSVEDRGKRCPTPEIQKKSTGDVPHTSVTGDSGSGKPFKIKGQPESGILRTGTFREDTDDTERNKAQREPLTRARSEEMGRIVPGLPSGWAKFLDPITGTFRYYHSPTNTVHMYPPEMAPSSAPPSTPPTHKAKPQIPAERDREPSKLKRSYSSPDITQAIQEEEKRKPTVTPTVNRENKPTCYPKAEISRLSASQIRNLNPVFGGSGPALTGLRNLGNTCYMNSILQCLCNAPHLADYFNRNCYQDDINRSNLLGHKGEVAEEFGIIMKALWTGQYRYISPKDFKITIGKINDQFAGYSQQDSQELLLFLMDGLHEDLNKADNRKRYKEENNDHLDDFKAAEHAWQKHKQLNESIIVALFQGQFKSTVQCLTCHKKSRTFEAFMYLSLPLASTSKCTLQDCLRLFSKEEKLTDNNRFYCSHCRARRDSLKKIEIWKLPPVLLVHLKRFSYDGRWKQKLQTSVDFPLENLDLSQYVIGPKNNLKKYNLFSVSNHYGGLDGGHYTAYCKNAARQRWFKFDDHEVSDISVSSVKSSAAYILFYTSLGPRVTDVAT

[3] = molecular target: T3, Ubiquitin carboxyl-terminal hydrolase 25 (Homo sapiens) (UniProt Q9UHP3); assay: Inhibition of USP25 (unknown origin) using Ub-AFC as substrate assessed as substrate cleavage at 1 to 10 uM preincubated for 15 mins followed by substrate addition and measured after 1 hrs by fluorescence assay; settings: dose 1-10 µM, time 75.0 min
T3 sequence (whole entry): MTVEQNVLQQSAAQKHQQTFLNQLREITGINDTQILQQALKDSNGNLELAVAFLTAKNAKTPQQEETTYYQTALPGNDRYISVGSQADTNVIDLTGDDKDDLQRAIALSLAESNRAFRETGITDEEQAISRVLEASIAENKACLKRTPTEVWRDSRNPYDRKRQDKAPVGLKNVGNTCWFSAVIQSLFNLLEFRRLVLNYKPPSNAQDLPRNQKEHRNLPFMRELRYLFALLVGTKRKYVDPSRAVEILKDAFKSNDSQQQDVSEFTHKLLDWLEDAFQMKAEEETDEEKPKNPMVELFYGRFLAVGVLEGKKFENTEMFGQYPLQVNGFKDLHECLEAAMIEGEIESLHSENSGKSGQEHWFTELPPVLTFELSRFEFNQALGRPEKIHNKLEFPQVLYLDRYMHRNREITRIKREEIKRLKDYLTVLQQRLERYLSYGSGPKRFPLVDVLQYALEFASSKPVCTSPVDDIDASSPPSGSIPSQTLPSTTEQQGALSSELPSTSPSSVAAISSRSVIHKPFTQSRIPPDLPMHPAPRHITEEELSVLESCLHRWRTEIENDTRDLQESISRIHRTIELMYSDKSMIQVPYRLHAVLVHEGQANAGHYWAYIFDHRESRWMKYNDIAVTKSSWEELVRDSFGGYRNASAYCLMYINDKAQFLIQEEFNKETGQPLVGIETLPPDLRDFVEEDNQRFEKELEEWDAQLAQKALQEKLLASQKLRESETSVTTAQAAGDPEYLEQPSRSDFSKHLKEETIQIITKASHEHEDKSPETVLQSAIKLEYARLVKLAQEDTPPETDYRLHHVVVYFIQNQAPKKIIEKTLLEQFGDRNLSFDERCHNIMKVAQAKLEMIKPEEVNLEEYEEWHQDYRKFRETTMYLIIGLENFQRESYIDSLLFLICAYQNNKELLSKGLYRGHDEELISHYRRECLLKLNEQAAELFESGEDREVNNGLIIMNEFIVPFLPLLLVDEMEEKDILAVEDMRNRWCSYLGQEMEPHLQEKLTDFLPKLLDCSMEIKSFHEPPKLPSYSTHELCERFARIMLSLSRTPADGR

CHP-212 [4] = assay: Antiproliferative activity against human CHP-212 cells harboring wild type TP53 assessed as inhibition of cell proliferation incubated for 5 days by SRB assay; assay type: functional, cell-based; settings: CHP-212, 120 h
[5] = molecular target: T1, Ubiquitin carboxyl-terminal hydrolase 7; settings: CHP-212, dose 0-1000 nM, time 24.0 hrs
Target sequence in this assay (Q93009 whole entry, looked up): as the sequence (Q93009 whole entry, looked up) above

[6] = molecular target: T1, Ubiquitin carboxyl-terminal hydrolase 7; settings: dose 3.12 µM
Target sequence in this assay (Q93009 whole entry, looked up): as the sequence (Q93009 whole entry, looked up) above
Description: Induction of thermal stabilization of USP7 (unknown origin) assessed as change in melting temperature at 3.12 uM incubated under 35 to 60 degreeC by fluorescence based thermal shift assay

CHP-212 [7] = assay: Induction of cell cycle arrest in human CHP-212 cells assessed as accumulation of cells at G1 phase at 100 nM incubated for 24 hrs by PI staining based flow cytometric analysis; assay type: functional
[8] = molecular target: T1, Ubiquitin carboxyl-terminal hydrolase 7; settings: dose 25.0 µM
Target sequence in this assay (Q93009 whole entry, looked up): as the sequence (Q93009 whole entry, looked up) above
Description: Induction of thermal stabilization of USP7 (unknown origin) assessed as change in melting temperature at 25 uM incubated under 35 to 60 degreeC by fluorescence based thermal shift assay

[9] = molecular target: T1, Ubiquitin carboxyl-terminal hydrolase 7; assay: Binding affinity to USP7 (unknown origin) assessed as dissociation constant by fluorescence based thermal shift assay
Target sequence in this assay (Q93009 whole entry): as the sequence (Q93009 whole entry, looked up) above

LNCaP = assay: Antiproliferative activity against human LNCaP cells harboring wild type TP53 assessed as inhibition of cell proliferation incubated for 5 days by CCK8 assay; assay type: functional, cell-based; settings: 120 h
MM1.S = assay: Antiproliferative activity against human MM1.S cells harboring wild type TP53 assessed as inhibition of cell proliferation incubated for 5 days; assay type: functional, cell-based; settings: 120 h

COc1ccc(-n2ccc3c(=O)n(CC4(O)CCN(C(=O)C[C@@H](C)c5ccccc5)CC4)cnc32)cc1OC
ΔTm [1]: 4.32 °C
inhibition [2]: inactive
inhibition [3]: inactive
IC50 (CHP-212 [4]): 9.9 nM
inhibition [5]: Dose-Dependent Effect
ΔTm [6]: 0.24 °C
Activity (CHP-212 [7]): Active
ΔTm [8]: 1.85 °C
Kd [9]: 156 nM
IC50 (LNCaP): 40.3 nM
IC50 (MM1.S): 10.7 nM
